Laboratory results taken from patent US20070269451A1, “Nucleic Acid Vaccination” (priority 1999, published 2007).
Entries after “also recorded” stand apart in the source; their conditions may differ.

Key:
antibody SM3 = experiment: Antibody binding curve for the mutant polypeptides (SM3 ELISA, FIG. 4); conditions: peptide coated at 3 ug/ml
Method: (§1) Peptides were prepared as aqueous solutions in 50 mM sodium bicarbonate buffer pH9.6 and coated onto Nunc Maxisorp plates at 4° C. overnight at a range of concentrations between 50 μg/ml and 25 ng/ml. After extensive washing with TBS-Tween (Tris-buffered saline, pH7.4 containing 0.05% Tween20), the plates were blocked with blocking solution (3% w/v bovine serum albumin in TBS-Tween) for 2 hours at room temperature. Anti-MUC1 antibodies HMFG1 (Novocastra, Newcastle, UK), HMFG2 (Novocastra), SM3 (Girling et al, 1989, Int J Cancer 43:1072-1076) and ATR1 (Bynum et al, 1995, Hybridoma 14:587-591) were diluted in blocking solution, added to the plate and incubated at room temperature for one hour. After washing, bound antibody was labelled by incubation with HRP-conjugated anti-mouse IgG (P260, Dako, Denmark) at 1/2000 dilution in blocking buffer. The plate was washed again and bound conjugate detected using Fast OPD colour reagents (Sigma, Poole, UK). The reaction was stopped by the addition of 3M sulphuric acid, and the OPD product quantitated by measuring the absorbance at 490 nm.
The polypeptides described in table 1 above were again used in this experiment. The methodology was essentially similar to Example 1 except that peptides were coated onto an ELISA plate at a fixed concentration of 3 ug/ml, and different concentrations of antibody SM3 were applied.

anti-MUC1 antibody ATR1 = experiment: ELISA binding of anti-MUC1 antibody ATR1 to synthetic MUC1 VNTR peptides; set-up: key: +++ indicates strong binding; ++ indicates fair binding; + indicates weak binding; − indicates no significant binding; conditions: peptide coated 50 μg/ml to 25 ng/ml; semiquantitative scale; absorbance at 490 nm
Description: (§2) Synthetic peptides were designed containing mutations at the glycosylation sites. Particular attention was focused on substitutions at the threonine residue in this sequence (T11). Table 1 below indicates the peptides that were designed and their mutated glycosylation sites. Peptides containing two identical copies of the designed VNTR were synthesised at Genemed Synthesis Inc (San Francisco, Calif.). These peptides were then screened for their ability to bind to a number of anti-MUC1 monoclonal antibodies in an ELISA.
as §1
(§3) The ELISA signal for each antibody and peptide combination is ranked according to a semiquantitative scale, where +++ indicates strong binding, ++ indicates fair binding, + indicates weak binding, and − indicates no significant binding.

anti-MUC1 antibody SM3 = experiment: ELISA binding of anti-MUC1 antibody SM3 to synthetic MUC1 VNTR peptides; set-up: key to ELISA signal, Antibody SM3: +++ indicates strong binding; ++ indicates fair binding; + indicates weak binding; − indicates no significant binding; conditions: for ELISA signal, Antibody SM3: peptide coated 50 μg/ml to 25 ng/ml, semiquantitative scale, absorbance at 490 nm; for binding for the SM3 antibody (in words): Table 2
Description: as §2, §1, §3

anti-MUC1 antibody HMFG2 = experiment: ELISA binding of anti-MUC1 antibody HMFG2 to synthetic MUC1 VNTR peptides; set-up: key: +++ indicates strong binding; ++ indicates fair binding; + indicates weak binding; − indicates no significant binding; conditions: peptide coated 50 μg/ml to 25 ng/ml; semiquantitative scale; absorbance at 490 nm
Description: as §2, §1, §3

anti-MUC1 antibody HMFG1 = experiment: ELISA binding of anti-MUC1 antibody HMFG1 to synthetic MUC1 VNTR peptides; set-up: key: +++ indicates strong binding; ++ indicates fair binding; + indicates weak binding; − indicates no significant binding; conditions: peptide coated 50 μg/ml to 25 ng/ml; semiquantitative scale; absorbance at 490 nm
Description: as §2, §1, §3

[1] = different concentrations of SM3

Substance | SM3 antibody binding pattern / affinity across a range of antibody concentrations (antibody SM3; [1]) | SM3 antibody binding pattern / affinity across a range of antibody concentrations (antibody SM3; different concentrations of SM3, listed as Mut 5A) | ELISA signal, Antibody ATR1 (anti-MUC1 antibody ATR1) | ELISA signal, Antibody SM3 (anti-MUC1 antibody SM3) | ELISA signal, Antibody HMFG2 (anti-MUC1 antibody HMFG2) | ELISA signal, Antibody HMFG1 (anti-MUC1 antibody HMFG1) | binding for the SM3 antibody (in words) (anti-MUC1 antibody SM3)
Ac-(PAHGVVAAPDARPAPGAVAP)2-NH2 [Mut5A] | essentially the same as those shown for Mut5W | substantially the same results as those shown for Mut5W | +++ | − | − | ++ | 
Ac-(PAHGVVAAPDIRPAPGAVAP)2-NH2 [Mut5I] | does little to reduce the affinity |  | ++ | +++ | +++ | ++ | maintain binding
Ac-(PAHGVVAAPDNRPAPGAVAP)2-NH2 [Mut5N] | substantially the same results as those shown for Mut5W; also recorded: essentially the same as those shown for Mut5W |  | +++ | − | − | − | 
Ac-(PAHGVVAAPDPRPAPGAVAP)2-NH2 [Mut5P] | substantially the same results as those shown for Mut5W; also recorded: essentially the same as those shown for Mut5W |  | + | − | − | + | 
Ac-(PAHGVVAAPDTRPAPGAVAP)2-NH2 [Mut4] |  |  | +++ | +++ | +++ | ++ | 
Ac-(PAHGVVAAPDVRPAPGAVAP)2-NH2 [Mut5V] | does little to reduce the affinity |  | +++ | +++ | +++ | − | maintain binding
Ac-(PAHGVVAAPDWRPAPGAVAP)2-NH2 [Mut5W] |  |  | ++ | − | − | − | 
